Counter-ions that a name gives are not always drawn.
The compounds below were run against T1, Human CCR3 (Homo sapiens, UniProt P51677) (assay: Receptor binding assay (RBA), [125I]-eotaxin). Conditions: human CCR3-transformed K562 cells, 0.1 nM [125I]-eotaxin; compounds of about 40 to 90% purity; read-out: Activity grade RBA (IC50 class).
T1 construct: The cloned CCR3 cDNA was constructed with pcDNA3 vector and transfected into a IC562 cell line; expressed in transfected cells
T1 sequence (P51677 1-355): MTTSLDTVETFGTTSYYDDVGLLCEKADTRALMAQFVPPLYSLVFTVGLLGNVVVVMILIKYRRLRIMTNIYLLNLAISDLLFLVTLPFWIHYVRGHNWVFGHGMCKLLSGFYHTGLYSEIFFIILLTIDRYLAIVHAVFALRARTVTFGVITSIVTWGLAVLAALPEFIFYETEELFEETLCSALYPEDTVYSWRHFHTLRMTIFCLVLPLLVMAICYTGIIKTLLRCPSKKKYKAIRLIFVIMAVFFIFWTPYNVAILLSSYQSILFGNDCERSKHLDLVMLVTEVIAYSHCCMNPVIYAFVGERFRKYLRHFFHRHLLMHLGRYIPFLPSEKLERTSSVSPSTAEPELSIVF
Method: [Determination of IC50 Values of Compounds in Receptor Binding Assay]
• Human CCR3-transformed K562 cells were used. The cloned CCR3 cDNA was constructed with pcDNA3 vector and transfected into a IC562 cell line. The human CCR3-transformed K562 cells were maintained in RPMI-1640 (Cat.#22400-089, Life Technologies) supplemented with 10% FCS (Cat.#A-1115-L, Hyclone), 55 μM 2-mercaptoethanol (Cat.#21985-023, Life Technologies), 1 mM sodium pyruvate (Cat.#11360-070, Life Technologies), 100 units/ml of penicillin G and 100 μg/ml of streptomycin (Cat.#15140-122, Life Technologies), and 0.4 mg/ml of Geneticin (Cat.#10131-035, Life Technologies)(hereinafter called “culture medium”). Before the receptor binding assay, cells were pretreated with 5 mM sodium butyrate (Cat.#193-01522, Wako)-containing the culture medium (2×10^5 cells/ml) for 20-24 hours to increase the expression of CCR3. (2) Receptor Binding Assay (RBA) • Butyrate-pretreated cells, suspended in binding buffer (25 mM HEPES pH 7.6, 1 mM CaCl2, 5 mM MgCl2, 0.5% BSA, 0.1% NaN3) at a cell density of 2×10^6 cells/ml, were added into 60 μl/well in the 96-well round bottom polypropylene plate (Cat.#3365, Costar). Compounds, diluted with the binding buffer (4-times higher concentration of the final concentration), were added into 30 μl/well in the polypropylene plate. [^125I]-labeled human eotaxin (Cat.#IM290, Amersham Pharmacia Biotech), diluted with the binding buffer at the concentration of 0.4 nM (final concentration; 0.1 nM), was added into 30 μl/well in the polypropylene plate. Total 120 μl/well of binding reaction mixture (60 μl/well of cell suspension, 30 μl/well of compound solution, and 30 μl/well of [^125I]-labeled eotaxin) were incubated in the polypropylene plate for 1 hour at room temperature after the incubation, 100 μl/well of the reaction mixture was transferred to a filtration plate (Cat.#MAFB-N0B, Millipore), and washed with the washing buffer (25 mM HEPES pH 7.6, 1 mM CaCl2, 5 mM MgCl2, 0.5% BSA, 0.1% NaN3, 0.5 M NaCl) twice. The 96-well filtration plate was pretreated with 100 μl/well of 0.5% polyethylenimine (Cat.#P-3143, Sigma) for 2-4 hours at room temperature and washed with the washing buffer twice before use. The non-specific binding was determined by parallel incubation in the presence of 500 nM of non-labeled eotaxin (Cat.#23209, Genzyme Techne). The radioactivities remained on the filter were measured by liquid scintillation counter (TopCount™, Packard) after an addition of 45 μl/well of scintillant (Microscint20, Cat.#6013621, Packard). The inhibition percent at each concentration of compound was calculated, and IC50 values were determined from the inhibition curve. [Determination of IC50 Values of Compounds in Calcium Mobilization Assay] (IC50 Ca2+) (1) Cell • Human CCR3-transformed K562 cells were used. The human CCR3-transformed K562 cells were maintained in RPMI-1640 supplemented with 10% FCS, 55 μM 2-mercaptoethanol (Cat.#21985-023, Life Technologies), 1 mM sodium pyruvate, 100 units/ml of penicillin G and 100 μg/ml of streptomycin and 0.4 mg/ml of Geneticin. Before the calcium mobilization assay, cells were pretreated with 5 mM sodium butyrate-containing the culture medium (2×10^5 cells/ml) for 20-24 hours to increase the expression of CCR3. (2) Calcium Mobilization Assay • Butyrate-pretreated cells were loaded with Fluo-3AM (Cat.#F-1242, Molecular Probes) in loading buffer (Hanks' solution Cat.#05906 Nissui, 20 mM HEPES pH 7.6, 0.1% BSA, 1 mM probenecid Cat.#P-8761 Sigma, 1 μM Fluo-3AM, 0.01% pluronic F-127 Cat.#P-6866 Molecular Probes) at a cell density of 1×10^7 cells/ml. Then, cells were washed with calcium assay buffer (Hanks' solution Cat.#05906 Nissui, 20 mM HEPES pH 7.6, 0.1% BSA, 1 mM Probenecid Cat.#P-8761 Sigma). The cell suspension (3.3×10^6 cells/ml) was added into 60 μl/well in the 96-well clear bottom black plate (Cat.#3904, Costar). […]

| Structure (SMILES) | IC50 [µM] |
| --- | --- |
| Cl.O=[N+]([O-])c1ccc(Oc2ccccc2Cl)c(S(=O)(=O)N2CCNCC2)c1 [Example 1-28] | 1 to 10 |
| Cl.Cl.Cl.Nc1ccc(Oc2ccc([N+](=O)[O-])cc2S(=O)(=O)N2CCNCC2)cc1 [Example 1-13] | > 10 |
| Cc1ccc(Cl)c(Oc2ccc([N+](=O)[O-])cc2S(=O)(=O)N2CCNCC2)c1 [Example 1-80] | < 1 |
| Cc1ccc(C(C)C)c(Oc2ccc([N+](=O)[O-])cc2S(=O)(=O)N2CCNCC2)c1.Cl [Example 1-66] | 1 to 10 |
| O=[N+]([O-])c1ccc(Oc2cc(Cl)cc(Cl)c2)c(S(=O)(=O)N2CC3CCCNC3C2)c1 (stereo not shown) [Example 1-48] | < 1 |
| Cc1cc(C)cc(Oc2ccc([N+](=O)[O-])cc2S(=O)(=O)N2CCN(CCO)CC2)c1 [Example 1-88] | < 1 |
| Cc1cc(C)cc(Oc2ccncc2S(=O)(=O)N2CCNCC2)c1 [Example 25-1, 1-{[4-(3,5-dimethylphenoxy)-3-pyridinyl]sulfonyl}piperazine hydrochloride] | 1 to 10 |
| Cc1cc(C)cc(Oc2ccc([N+](=O)[O-])cc2S(=O)(=O)N2CCCNCC2)c1 [Example 1-90] | < 1 |
| Cc1cc(C)cc(Oc2ccc(S(C)(=O)=O)cc2S(=O)(=O)N2CCNCC2)c1.Cl [Example 1-35] | 1 to 10 |
| Cl.O=S(=O)(c1cc(F)ccc1Oc1cc(Cl)cc(Cl)c1)N1CCNCC1 [Example 1-51] | < 1 |
| O=[N+]([O-])c1ccc(Oc2cc(Br)cc(Br)c2)c(S(=O)(=O)N2CCNCC2)c1 [Example 1-76] | < 1 |
| Cc1cc(C)cc(Oc2ccc([N+](=O)[O-])cc2S(=O)(=O)N2CCN(C(=O)OC(C)(C)C)CC2)c1 [Example 1-1, tert-butyl 4-{[2-(3,5-dimethylphenoxy)-5-nitrophenyl]sulfonyl}-1-piperazinecarboxylate] | > 10 |
| Cc1cc(C)cc(Oc2ccc(O)cc2S(=O)(=O)N2CCNCC2)c1 [Example 6-1, 4-(3,5-dimethylphenoxy)-3-(1-piperazinylsulfonyl)phenol hydrochloride] | > 10 |
| Cc1ccccc1Oc1ccc([N+](=O)[O-])cc1S(=O)(=O)N1CCNCC1.Cl [Example 1-12] | 1 to 10 |
| CN(C)c1cccc(Oc2ccc([N+](=O)[O-])cc2S(=O)(=O)N2CCNCC2)c1.Cl [Example 1-32] | > 10 |
| O=[N+]([O-])c1ccc(Oc2ccc(Cl)cc2)c(S(=O)(=O)N2CCNCC2)c1 [Example 1-22] | > 10 |
| Cc1cc(C)c(C)c(Oc2ccc([N+](=O)[O-])cc2S(=O)(=O)N2CCNCC2)c1.Cl [Example 1-65] | < 1 |
| N#Cc1ccc(Nc2cc(Cl)cc(Cl)c2)c(S(=O)(=O)N2CCNCC2)c1 [Example 20-1, 4-[(3,5-dichlorophenyl)amino]-3-(1-piperazinylsulfonyl)benzonitrile hydrochloride] | < 1 |
| Cl.N#Cc1cccc(Oc2ccc([N+](=O)[O-])cc2S(=O)(=O)N2CCNCC2)c1 [Example 1-10] | 1 to 10 |
| COc1ccc(Oc2cc(C)cc(C)c2)c(S(=O)(=O)N2CCNCC2)c1 [Example 6-2, hydrochloride] | < 1 |
| CC1CN(S(=O)(=O)c2cc([N+](=O)[O-])ccc2Oc2cc(Cl)cc(Cl)c2)CC(C)N1 (stereo not shown) [Example 1-93] | < 1 |
| Cc1cc(C)cc(Oc2ccc(C(=O)N3CCNCC3)cc2S(=O)(=O)N2CCNCC2)c1.Cl.Cl [Example 1-42] | > 10 |

| Structure (SMILES) | IC50 [µM] |
| --- | --- |
| O=[N+]([O-])c1ccc(Oc2cc(Cl)ccc2Cl)c(S(=O)(=O)N2CCNCC2)c1 [Example 1-84] | < 1 |
| CC(C)(C)c1cccc(Oc2ccc([N+](=O)[O-])cc2S(=O)(=O)N2CCNCC2)c1.Cl [Example 1-36] | 1 to 10 |
| CC(C)(C)c1cc(Oc2ccc([N+](=O)[O-])cc2S(=O)(=O)N2CCNCC2)cc(C(C)(C)C)c1.Cl [Example 1-7] | > 10 |
| O=[N+]([O-])c1ccc(Oc2ccc(F)cc2)c(S(=O)(=O)N2CCNCC2)c1 [Example 1-20] | > 10 |
| COc1cc(Oc2cc(C)cc(C)c2)c(S(=O)(=O)N2CCNCC2)cc1[N+](=O)[O-].Cl [Example 1-47] | 1 to 10 |
| CC(=O)c1cccc(Oc2ccc([N+](=O)[O-])cc2S(=O)(=O)N2CCNCC2)c1.Cl [Example 1-31] | > 10 |
| Cc1cc(Oc2ccc([N+](=O)[O-])cc2S(=O)(=O)N2CCNCC2)cc(C)c1Cl [Example 1-79] | < 1 |
| Cc1ccc(C)c(Oc2ccc([N+](=O)[O-])cc2S(=O)(=O)N2CCNCC2)c1.Cl [Example 1-64] | < 1 |
| Cl.O=[N+]([O-])c1ccc(Oc2cc(C(F)(F)F)cc(C(F)(F)F)c2)c(S(=O)(=O)N2CCNCC2)c1 [Example 1-6] | < 1 |
| CN(C)C(=O)c1ccc(Oc2cc(Cl)cc(Cl)c2)c(S(=O)(=O)N2CCNCC2)c1 [Example 10-1, 4-(3,5-dichlorophenoxy)-N,N-dimethyl-3-(1-piperazinylsulfonyl)benzamide hydrochloride] | 1 to 10 |
| CC(C)c1cccc(Oc2ccc([N+](=O)[O-])cc2S(=O)(=O)N2CCNCC2)c1.Cl [Example 1-9] | < 1 |
| Cc1cc(Oc2ccc([N+](=O)[O-])cc2S(=O)(=O)N2CCNCC2)ccc1Cl.Cl [Example 1-60] | 1 to 10 |
| Cl.O=[N+]([O-])c1ccc(Oc2cccc(C(F)(F)F)c2)c(S(=O)(=O)N2CCNCC2)c1 [Example 1-34] | < 1 |
| Cc1cc(Oc2cc(Cl)cc(Cl)c2)c(S(=O)(=O)N2CCNCC2)cc1[N+](=O)[O-].Cl [Example 1-45] | < 1 |
| Cl.O=[N+]([O-])c1cccc(Oc2ccc([N+](=O)[O-])cc2S(=O)(=O)N2CCNCC2)c1 [Example 1-38] | 1 to 10 |
| Cc1cc(C)cc(Oc2ccc(C(F)(F)F)cc2S(=O)(=O)N2CCNCC2)c1.Cl [Example 1-43] | < 1 |
| Cc1cc(Oc2ccc([N+](=O)[O-])cc2S(=O)(=O)N2CCNCC2)c(C(C)C)cc1Cl [Example 1-81] | > 10 |
| Cl.O=[N+]([O-])c1ccc(Oc2cccc3ccccc23)c(S(=O)(=O)N2CCNCC2)c1 [Example 1-11] | 1 to 10 |
| Cc1cc(C)cc(Sc2ccc([N+](=O)[O-])cc2S(=O)(=O)N2CCNCC2)c1 [Example 2-1, 1-({2-[(3,5-dimethylphenyl)-sulfanyl]-5-nitrophenyl}sulfonyl)piperazine hydrochloride] | < 1 |
| CCCCc1ccccc1Oc1ccc([N+](=O)[O-])cc1S(=O)(=O)N1CCNCC1.Cl [Example 1-40] | < 1 |
| N#Cc1ccccc1Oc1ccc([N+](=O)[O-])cc1S(=O)(=O)N1CCNCC1 [Example 1-29] | 1 to 10 |

Reference: patent US8242118B2, “Arylsulfonamide derivatives for use as CCR3 antagonists in the treatment of inflammatory and immunological disorders” (Axikin Pharmaceuticals Inc., priority 2001, dated 2012)
